{
  "source": "patent US20250243196A1",
  "about": "“CITRON KINASE INHIBITORS” (The Cleveland Clinic Foundation, priority 2021, published 2025)",
  "key": {"BMPR2(h)": {"molecular_target": "BMPR2(h) (Homo sapiens (Human), UniProt Q13873)", "sequence (Q13873 27-1038)": "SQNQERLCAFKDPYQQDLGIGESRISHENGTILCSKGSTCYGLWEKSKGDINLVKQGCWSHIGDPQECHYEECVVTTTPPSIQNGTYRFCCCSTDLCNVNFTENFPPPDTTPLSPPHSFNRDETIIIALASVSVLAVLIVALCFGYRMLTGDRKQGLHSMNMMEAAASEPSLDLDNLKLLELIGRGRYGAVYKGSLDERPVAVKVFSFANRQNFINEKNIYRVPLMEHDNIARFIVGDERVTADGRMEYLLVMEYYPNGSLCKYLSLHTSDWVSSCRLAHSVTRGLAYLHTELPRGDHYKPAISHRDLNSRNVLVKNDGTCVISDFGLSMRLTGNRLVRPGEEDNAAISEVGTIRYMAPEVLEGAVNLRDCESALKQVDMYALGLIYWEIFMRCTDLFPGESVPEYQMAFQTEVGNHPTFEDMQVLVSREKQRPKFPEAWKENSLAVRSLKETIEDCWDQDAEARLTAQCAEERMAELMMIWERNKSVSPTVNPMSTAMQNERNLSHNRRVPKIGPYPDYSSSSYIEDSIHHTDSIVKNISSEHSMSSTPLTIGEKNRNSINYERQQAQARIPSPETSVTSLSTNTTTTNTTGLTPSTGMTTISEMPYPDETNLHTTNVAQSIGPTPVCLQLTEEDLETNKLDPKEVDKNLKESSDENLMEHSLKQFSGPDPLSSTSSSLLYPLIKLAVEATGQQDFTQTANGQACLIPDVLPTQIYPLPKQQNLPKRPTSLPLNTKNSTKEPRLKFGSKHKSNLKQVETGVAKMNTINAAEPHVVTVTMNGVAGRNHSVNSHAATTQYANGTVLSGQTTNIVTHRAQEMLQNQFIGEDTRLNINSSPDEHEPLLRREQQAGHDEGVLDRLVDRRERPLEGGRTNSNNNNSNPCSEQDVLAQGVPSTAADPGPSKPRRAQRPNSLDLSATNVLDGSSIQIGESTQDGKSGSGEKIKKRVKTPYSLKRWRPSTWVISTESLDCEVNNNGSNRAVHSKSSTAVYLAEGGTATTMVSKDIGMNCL", "assay": "KinaseProfiler panel", "assay_type": "biochemical", "set-up": "dose or concentration left out as unconfirmed", "settings": "activity remaining"}, "[1]": {"test_system": "NCI-60 human tumor cell line panel", "assay": "NCI-60 human tumor cell line screen (GI50)", "assay_type": "cell-based"}},
  "note": "Where two headings read alike, the source gives them in different places.",
  "data": [
    {"smiles": "Cc1cc2c(-c3ccc(NC(=O)[C@H](N)CC(C)(C)C)cc3C)ccnc2[nH]1", "note": "[Compound F-90, (2R)-2-Amino-4,4-dimethyl-N-[3-methyl-4-(2-methyl-1H-pyrrolo[2,3-b]pyridin-4-yl)phenyl]pentanamide]", "values": [
      {"measurement": "% Activity", "setting": "BMPR2(h)", "value": 85, "unit": "%"},
      {"measurement": "GI50", "setting": "[1]; 786-0, Renal Cancer", "value": "−5.744 Log(M)"},
      {"measurement": "GI50", "setting": "[1]; A498, Renal Cancer", "value": "−5.657 Log(M)"},
      {"measurement": "GI50", "setting": "[1]; A549/ATCC, Non-Small Cell Lung Cancer", "value": "−4.985 Log(M)"},
      {"measurement": "GI50", "setting": "[1]; ACHN, Renal Cancer", "value": "−4.978 Log(M)"},
      {"measurement": "GI50", "setting": "[1]; BT-549, Breast Cancer", "value": "−5.200 Log(M)"},
      {"measurement": "GI50", "setting": "[1]; CAKI-1, Renal Cancer", "value": "−5.347 Log(M)"},
      {"measurement": "GI50", "setting": "[1]; CCRF-CEM, Leukemia", "value": "−5.267 Log(M)"},
      {"measurement": "GI50", "setting": "[1]; COLO 205, Colon Cancer", "value": "−5.741 Log(M)"},
      {"measurement": "GI50", "setting": "[1]; DU-145, Prostate Cancer", "value": "−4.905 Log(M)"},
      {"measurement": "GI50", "setting": "[1]; EKVX, Non-Small Cell Lung Cancer", "value": "−4.950 Log(M)"},
      {"measurement": "GI50", "setting": "[1]; HCC-2998, Colon Cancer", "value": "−5.236 Log(M)"},
      {"measurement": "GI50", "setting": "[1]; HCT-15, Colon Cancer", "value": "−5.345 Log(M)"},
      {"measurement": "GI50", "setting": "[1]; HCT-116, Colon Cancer", "value": "−5.314 Log(M)"},
      {"measurement": "GI50", "setting": "[1]; HL-60(TB), Leukemia", "value": "−5.539 Log(M)"},
      {"measurement": "GI50", "setting": "[1]; HOP-62, Non-Small Cell Lung Cancer", "value": "−4.941 Log(M)"},
      {"measurement": "GI50", "setting": "[1]; HOP-92, Non-Small Cell Lung Cancer", "value": "−5.574 Log(M)"},
      {"measurement": "GI50", "setting": "[1]; HS 578T, Breast Cancer", "value": "−5.849 Log(M)"},
      {"measurement": "GI50", "setting": "[1]; HT29, Colon Cancer", "value": "−5.565 Log(M)"},
      {"measurement": "GI50", "setting": "[1]; Homo sapiens, 786-0, 786-0, Renal Cancer, read-out: GI50", "value": 1.8, "unit": "µM"},
      {"measurement": "GI50", "setting": "[1]; Homo sapiens, A498, A498, Renal Cancer, read-out: GI50", "value": 2.2, "unit": "µM"},
      {"measurement": "GI50", "setting": "[1]; Homo sapiens, A549, A549/ATCC, Non-Small Cell Lung Cancer, read-out: GI50", "value": 10.3, "unit": "µM"},
      {"measurement": "GI50", "setting": "[1]; Homo sapiens, ACHN, Renal Cancer, read-out: GI50", "value": 10.5, "unit": "µM"},
      {"measurement": "GI50", "setting": "[1]; Homo sapiens, BT-549, BT-549, Breast Cancer, read-out: GI50", "value": 6.3, "unit": "µM"},
      {"measurement": "GI50", "setting": "[1]; Homo sapiens, CAKI-1, CAKI-1, Renal Cancer, read-out: GI50", "value": 4.5, "unit": "µM"},
      {"measurement": "GI50", "setting": "[1]; Homo sapiens, CCRF-CEM, Leukemia, read-out: GI50", "value": 5.4, "unit": "µM"},
      {"measurement": "GI50", "setting": "[1]; Homo sapiens, COLO 205, COLO 205, Colon Cancer, read-out: GI50", "value": 1.8, "unit": "µM"},
      {"measurement": "GI50", "setting": "[1]; Homo sapiens, DU-145, DU-145, Prostate Cancer, read-out: GI50", "value": 12.4, "unit": "µM"},
      {"measurement": "GI50", "setting": "[1]; Homo sapiens, EKVX, Non-Small Cell Lung Cancer, read-out: GI50", "value": 11.2, "unit": "µM"},
      {"measurement": "GI50", "setting": "[1]; Homo sapiens, HCC 2998, HCC-2998, Colon Cancer, read-out: GI50", "value": 5.8, "unit": "µM"},
      {"measurement": "GI50", "setting": "[1]; Homo sapiens, HCT-15, HCT-15, Colon Cancer, read-out: GI50", "value": 4.5, "unit": "µM"},
      {"measurement": "GI50", "setting": "[1]; Homo sapiens, HCT-116, HCT-116, Colon Cancer, read-out: GI50", "value": 4.9, "unit": "µM"},
      {"measurement": "GI50", "setting": "[1]; Homo sapiens, HL-60, HL-60(TB), Leukemia, read-out: GI50", "value": 2.9, "unit": "µM"},
      {"measurement": "GI50", "setting": "[1]; Homo sapiens, HOP-62, HOP-62, Non-Small Cell Lung Cancer, read-out: GI50", "value": 11.4, "unit": "µM"},
      {"measurement": "GI50", "setting": "[1]; Homo sapiens, HOP-92, HOP-92, Non-Small Cell Lung Cancer, read-out: GI50", "value": 2.7, "unit": "µM"},
      {"measurement": "GI50", "setting": "[1]; Homo sapiens, HT-29, HT29, Colon Cancer, read-out: GI50", "value": 2.7, "unit": "µM"},
      {"measurement": "GI50", "setting": "[1]; Homo sapiens, Hs-578T, HS 578T, Breast Cancer, read-out: GI50", "value": 1.4, "unit": "µM"},
      {"measurement": "GI50", "setting": "[1]; Homo sapiens, IGROV-1, IGROV1, Ovarian Cancer, read-out: GI50", "value": 12.2, "unit": "µM"},
      {"measurement": "GI50", "setting": "[1]; Homo sapiens, K562, K-562, Leukemia, read-out: GI50", "value": 2.8, "unit": "µM"},
      {"measurement": "GI50", "setting": "[1]; Homo sapiens, KM12, KM12, Colon Cancer, read-out: GI50", "value": 6.1, "unit": "µM"},
      {"measurement": "GI50", "setting": "[1]; Homo sapiens, LOX IMVI, Melanoma, read-out: GI50", "value": 6.2, "unit": "µM"},
      {"measurement": "GI50", "setting": "[1]; Homo sapiens, M14, M14, Melanoma, read-out: GI50", "value": 11, "unit": "µM"},
      {"measurement": "GI50", "setting": "[1]; Homo sapiens, MCF7, MCF7, Breast Cancer, read-out: GI50", "value": 5.5, "unit": "µM"},
      {"measurement": "GI50", "setting": "[1]; Homo sapiens, MDA-MB-231, MDA-MB-231/ATCC, Breast Cancer, read-out: GI50", "value": 7.4, "unit": "µM"},
      {"measurement": "GI50", "setting": "[1]; Homo sapiens, MDA-MB-435, MDA-MB-435, Breast Cancer, read-out: GI50", "value": 7, "unit": "µM"},
      {"measurement": "GI50", "setting": "[1]; Homo sapiens, MDA-MB-468, MDA-MB-468, Breast Cancer, read-out: GI50", "value": 2.7, "unit": "µM"},
      {"measurement": "GI50", "setting": "[1]; Homo sapiens, MOLT-4, MOLT-4, Leukemia, read-out: GI50", "value": 4.7, "unit": "µM"},
      {"measurement": "GI50", "setting": "[1]; Homo sapiens, Malme-3M, Melanoma, read-out: GI50", "value": 10.2, "unit": "µM"},
      {"measurement": "GI50", "setting": "[1]; Homo sapiens, NCI-H23, NCI-H23, Non-Small Cell Lung Cancer, read-out: GI50", "value": 12.2, "unit": "µM"},
      {"measurement": "GI50", "setting": "[1]; Homo sapiens, NCI-H226, NCI-H226, Non-Small Cell Lung Cancer, read-out: GI50", "value": 10.7, "unit": "µM"},
      {"measurement": "GI50", "setting": "[1]; Homo sapiens, NCI-H322M, Non-Small Cell Lung Cancer, read-out: GI50", "value": 14.3, "unit": "µM"},
      {"measurement": "GI50", "setting": "[1]; Homo sapiens, NCI-H460, NCI-H460, Non-Small Cell Lung Cancer, read-out: GI50", "value": 5.7, "unit": "µM"},
      {"measurement": "GI50", "setting": "[1]; Homo sapiens, NCI-H522, NCI-H522, Non-Small Cell Lung Cancer, read-out: GI50", "value": 13, "unit": "µM"},
      {"measurement": "GI50", "setting": "[1]; Homo sapiens, NCI/ADR-RES, Breast Cancer, read-out: GI50", "value": 13.4, "unit": "µM"},
      {"measurement": "GI50", "setting": "[1]; Homo sapiens, OVCAR-3, OVCAR-3, Ovarian Cancer, read-out: GI50", "value": 11.6, "unit": "µM"},
      {"measurement": "GI50", "setting": "[1]; Homo sapiens, OVCAR-4, OVCAR-4, Ovarian Cancer, read-out: GI50", "value": 7, "unit": "µM"},
      {"measurement": "GI50", "setting": "[1]; Homo sapiens, OVCAR-5, OVCAR-5, Ovarian Cancer, read-out: GI50", "value": 10.4, "unit": "µM"},
      {"measurement": "GI50", "setting": "[1]; Homo sapiens, OVCAR-8, OVCAR-8, Ovarian Cancer, read-out: GI50", "value": 13.6, "unit": "µM"},
      {"measurement": "GI50", "setting": "[1]; Homo sapiens, PC-3, Prostate Cancer, read-out: GI50", "value": 7.9, "unit": "µM"},
      {"measurement": "GI50", "setting": "[1]; Homo sapiens, RPMI-8226, RPMI-8226, Leukemia, read-out: GI50", "value": 2.8, "unit": "µM"},
      {"measurement": "GI50", "setting": "[1]; Homo sapiens, RXF 393, RXF 393, Renal Cancer, read-out: GI50", "value": 3.7, "unit": "µM"},
      {"measurement": "GI50", "setting": "[1]; Homo sapiens, SF-268, SF-268, CNS Cancer, read-out: GI50", "value": 11.1, "unit": "µM"},
      {"measurement": "GI50", "setting": "[1]; Homo sapiens, SF-295, SF-295, CNS Cancer, read-out: GI50", "value": 8.3, "unit": "µM"},
      {"measurement": "GI50", "setting": "[1]; Homo sapiens, SF-539, SF-539, CNS Cancer, read-out: GI50", "value": 8, "unit": "µM"},
      {"measurement": "GI50", "setting": "[1]; Homo sapiens, SK-MEL-2, SK-MEL-2, Melanoma, read-out: GI50", "value": 14, "unit": "µM"}
    ]}
  ]
}
